# Laboratory results as given in US10238689B2, “Methods for combating bacterial infections by killing persister cells with mitomycin C and/or cisplatin” (THE PENN STATE RESEARCH FOUNDATION, priority 2015, dated 2019).
# “And” between values parts separate entries of the source, which are not always exact repeats. Equal values may be shown once. “Also recorded” adds a separate entry of the source.
# What was measured:
# E. coli K-12 = assay: Planktonic antibiotic killing assay; format: cell-based, Escherichia coli; settings: for fold more effective compared to ciprofloxacin: MMC 10 μg/mL vs ciprofloxacin 5 μg/mL
# Experimental: (§1) In order to obtain exponential and mid-stationary phase cultures in LB, buffered LB or TSB, overnight cultures (16 h) were diluted 1:1000 in fresh medium and grown to the desired turbidity (i.e., a turbidity below 2 at 600 nm for exponential phase and a turbidity of 3 to 4 at 600 nm for mid-stationary phase). Late-stationary phase cultures in LB or buffered LB were obtained by growing overnight cultures (16 h). In order to obtain exponential and late-stationary phase cultures in M9-glucose, overnight cultures (16 h) were washed diluted 1:1000 in M9-glucose and grown for the desired period of time (i.e., a turbidity of 0.4 at 600 nm for exponential phase and 24 h of growth for late-stationary phase). Anaerobically grown cultures were maintained with ˜20% CO2, ˜79% N2, and ˜1% H2. In order to obtain rifampicin-induced persister cultures in buffered LB, overnight cultures (16 h) were diluted 1:1000 in fresh medium and grown to a turbidity of 0.8 at 600 nm. Cultures were exposed to rifampicin (100 μg/mL) for 30 min, centrifuged, and resuspended in fresh medium to remove the rifampicin.
# E. coli O157:H7 (EHEC) = assay: Planktonic antibiotic killing assay; format: cell-based, Escherichia coli; settings: MMC 10 μg/mL, 3 h; for cell viability after treatment: rich medium (buffered LB)
# Experimental: as §1
# [1] = test system: E. coli K-12 biofilm cultures; assay: Biofilm antibiotic killing assay; format: cell-based, Escherichia coli
# [2] = test system: E. coli K-12 BW25113 biofilm; assay: Biofilm dispersal assay (crystal violet); format: cell-based, Escherichia coli; settings: 24 h static growth then 24 h with MMC, 30° C., M9-glucose
# Experimental: Cultures were incubated for an additional 24 h with or without MMC. Biofilm levels were assayed using crystal violet staining as described previously (Lee, et al., Appl. Environ. Microbiol. 75, 1703 (2009)). Cell growth (turbidity at 620 nm) was used to normalize the total biofilm formation (absorbance at 540 nm). Data points were averaged from 15 replicate wells using at least two independent cultures.
# [3] = test system: E. coli K-12 ΔuvrA, ΔuvrB, and ΔuvrC mutants; assay: Planktonic killing of uvr deletion mutants; format: cell-based, Escherichia coli; settings: mid-stationary phase, buffered LB
# Experimental: as §1
# [4] = test system: pDNA of E. coli K-12 BW25113/pCA24N; assay: Denaturing agarose gel electrophoresis of pDNA from treated cells; format: cell-based, Escherichia coli; settings: non-persisters and rifampicin-induced persisters, MMC 100 μg/mL 1 h
# Experimental: Overnight cultures (16 h) of E. coli K-12 BW25113/pCA24N grown in LB were diluted 1:1000 in buffered LB and grown to the desired turbidity. For exponential phase cells (i.e., non-persisters), cultures were grown to a turbidity of 2.0 at 600 nm. For rifampicin-induced persisters, cultures were grown to a turbidity of 0.8 at 600 nm, exposed to rifampicin (100 μg/mL) for 30 min, centrifuged, and resuspended in fresh medium to remove the rifampicin. Non-persister and rifampicin-induced persister cultures were treated with MMC (100 μg/mL) for 1 h. pDNA was extracted from samples taken before and after MMC treatment and linearized by HindIII digestion. As a positive control, 2 μg of linearized pDNA from non-persisters was crosslinked in vitro with 500 μg/mL (1.5 mM) MMC in 0.2 mM EDTA, 50 mM NaCl, and 5 mM Tris (pH=7.6) with Na2S2O4 added six times at 10 min intervals to reach a final concentration of 2.25 mM (1.5× molarity of MMC). The in vitro crosslinking reaction was performed anaerobically on ice and the reaction was stopped by exposure to air. Linearized pDNA was visualized after electrophoresis through a TAE agarose gel and an alkaline denaturing agarose gel. Experiment was performed with at least two independent cultures.
# [5] = test system: S. aureus (methicillin sensitive); assay: Planktonic antibiotic killing assay; format: cell-based, Staphylococcus aureus; settings: rich medium (TSB), MMC 10 μg/mL, ciprofloxacin 5 μg/mL, 3 h
# Experimental: as §1
# [6] = test system: S. aureus biofilm cultures; assay: Biofilm antibiotic killing assay; format: cell-based, Staphylococcus aureus; settings: minimal medium (modified M9-glucose), 24 h treatment, MMC 10 μg/mL, ciprofloxacin 5 μg/mL
# P. aeruginosa PA14 = assay: Planktonic antibiotic killing assay; format: cell-based, Pseudomonas aeruginosa; settings: mid-stationary phase, rich medium; MMC 10 μg/mL, 3 h
# Experimental: as §1
# [7] = test system: S. aureus clinical isolates 5B and 50F; assay: Persister cell assay, clinical isolates; format: cell-based, Staphylococcus aureus; settings: for survival: stationary phase, 500 μg/mL of cisplatin
# Experimental: For the persister cell assay of the pathogens, stationary-phase cells were used. Cultures of EHEC, P. aeruginosa, and S. aureus were prepared by a 1:1000 dilution of overnight grown cultures (LB medium for EHEC and P. aeruginosa, TSB for S. aureus) into fresh buffered LB medium for EHEC, M9-glucose for P. aeruginosa, and TSB for S. aureus and re-growing the cells to a turbidity of 3 to 4 at 600 nm for EHEC and S. aureus and growing for 24 h for P. aeruginosa. […]
# DNA = settings: Eastman 1987; cited from earlier work
smiles,measurement,setting,value
"CO[C@@]12[C@H](COC(N)=O)C3=C(C(=O)C(C)=C(N)C3=O)N1C[C@@H]1N[C@@H]12 [MMC, mitomycin C]",survival,"E. coli K-12; anaerobic, late-stationary phase cells in rich medium (LB)",eradication beyond the limit of detection; also recorded: eradicated
same,susceptibility of exponential-phase cultures,"E. coli K-12; exponential phase, M9-glucose",similarly susceptible
same,fold more effective compared to ciprofloxacin,"E. coli K-12; exponentially-growing cells, buffered LB, 3 h","2,300 fold"
same,time course of killing (death curve),"E. coli K-12; late-stationary phase culture, buffered LB",does not show the bi-phasic death curve
same,persistence (surviving population),"E. coli K-12; late-stationary phase, M9-glucose, MMC 10, ciprofloxacin 5, gentamicin 10 μg/mL, 3 h",eradication beyond the limit of detection; also recorded: eradicated cells
same,fold more effective compared to ciprofloxacin,"E. coli K-12; mid-stationary-phase cells, buffered LB, 3 h","150,000 fold"
same,effectiveness against rifampicin-induced persister cells,"E. coli K-12; rifampicin pretreatment 100 μg/mL 30 min, buffered LB, MMC 10 μg/mL, ciprofloxacin 5 μg/mL, 3 h",highly effective
same,cell viability after treatment,E. coli O157:H7 (EHEC); exponential phase,eradicating
same,cells survived,"E. coli O157:H7 (EHEC); late-stationary phase, M9-glucose, ciprofloxacin 5 μg/mL",eradicated
same,cell viability after treatment,E. coli O157:H7 (EHEC); mid-stationary phase,eradicating
same,fold more susceptible to MMC than ciprofloxacin,[1]; anaerobic biofilm cultures in M9-glucose,"2,500 fold"
same,fold more cells killed than ciprofloxacin,"[1]; biofilms in M9-glucose, 24 h of treatment","100,000 fold"
same,biofilm cell viability after treatment,"[1]; biofilms in M9-glucose, MMC 10 μg/mL, 24 h",nearly eliminating cells
same,biofilm dispersal,[2],does not cause biofilm dispersal; also recorded: did not cause biofilm dispersal
same,time of treatment to eradication (beyond the limit of detection),[3],less than 30 min
same,pDNA crosslinking (migration as double-stranded DNA under denaturing conditions),[4],crosslinks DNA in E. coli K-12 persister cells; also recorded: high percentage of crosslinking
same,survival,[5]; exponential phase,eradicating
same,survival,[5]; mid-stationary phase,eradicating
same,survival,[6],eradicating cells beyond the limit of detection
same,survival,P. aeruginosa PA14,0.0038±0.0005%
"N.N.[Cl][Pt][Cl] [cisplatin, cis-diamminodichloroplatinum(II)]",cell viability after treatment,"[7]; both clinical isolates, 800 μg/mL",completely eradicate
same,survival,[7]; isolate 5B,2.5±3.5%
same,survival,[7]; isolate 50F,10±4%
same,intrastrand crosslinks at AG sequences,DNA,17-19% and 17 to 19%
same,intrastrand crosslinks at GNG sequences,DNA,< 8%
same,intrastrand crosslinks at adjacent guanines,DNA,54-65% and 54 to 65%
